SMILES strings stand for the structures. ± gives the expanded uncertainty stated by the source.

The conditions of this data set: Crystal; visual observation.

Consider `Nc1ccc(S(=O)(=O)O)cc1` [4-aminobenzenesulfonic acid], for which the Normal melting temperature came to 288.0 ± 0.5 °C.

(Values after the NIST ThermoML archive (doi:10.1021/je500867u).)
